In patent publication US10857245B2, “Diagnostic imaging agent for early bone metastasis from cancer” (NIHON MEDI-PHYSICS CO., LTD., priority 2015, dated 2020):

What was measured:
[1] = system: bone metastasis from rat breast cancer cell line MRMT-1; experiment: Autoradiography in rat model of osteolytic bone metastasis from breast cancer; format: in vivo; conditions: limb transplanted with MRMT-1 (right hind limb), day 12 to 14 after transplantation; tail vein; sacrifice after 30 minutes (^99mTc-HMDP 2 hours)
Procedure: A rat breast cancer cell line MRMT-1 was obtained from RIKEN BioResource Center. MRMT-1 was subcultured using a medium RPMI1640 (manufactured by Life Technologies Japan Ltd.) with 10% fetal bovine serum (American Type Culture Collection), 100 U/mL penicillin (manufactured by Life Technologies Japan Ltd.), and 0.1 mg/mL streptomycin (manufactured by Life Technologies Japan Ltd). On the day of transplantation, the medium in a culture vessel was removed and Trypsin-EDTA solution (manufactured by Life Technologies Japan Ltd.) maintained at 37° C. was added to the culture vessel, which was left to stand at 37° C. for about 5 minutes. After MRMT-1 was detached from the surface of the culture vessel, the above-mentioned medium was added to the culture vessel in an amount equal to that of Trypsin-EDTA solution. MRMT-1 was precipitated by centrifugation (800 rpm, 5 min) and its supernatant was removed, and a cell suspension in which MRMT-1 was suspended in Hank's buffer (manufactured by Life Technologies Japan Ltd.) at a concentration of 2.5×10^5 cells/mL was then produced.
An anti-inflammatory analgesic, Metacam 0.5% Solution for Injection (manufactured by Boehringer Ingelheim Vetmedica Japan Co., Ltd.) was subcutaneously injected into the groin of the right hind limb of 9-week-old male SD rat (Japan SLC, Inc.) at a rate of 0.2 mg/kg under isoflurane (manufactured by Mylan) anesthesia, and the skin in the groin was then incised. Next, the saphenous artery, the saphenous vein and the nerve parallel thereto were removed from muscles and isolated, and a surgical suture (3-0) was passed under the saphenous artery in the portion distal to the popliteal artery bifurcation. In addition, tissues around the superficial epigastric artery bifurcation were removed and a surgical suture (3-0) was passed under the femoral artery between the superficial epigastric artery bifurcation and the popliteal artery bifurcation (the portion slightly distal to the superficial epigastric artery bifurcation). Subsequently, a few drops of Papaverine Hydrochloride Injection 40 mg (manufactured by Nichi-Iko Pharmaceutical Co., Ltd.) was added dropwise around the saphenous artery to relax vascular smooth muscle, and each end of the surgical suture passed under the saphenous artery and the femoral artery was picked up with forceps, and the saphenous artery and the femoral artery were lifted to compress the arteries. A cotton swab was put under the saphenous artery to retain the saphenous artery, and an injection needle was inserted from the distal portion of the saphenous artery in the central direction, and MRMT-1 suspension (0.1 mL) was slowly injected. […]

[2] = system: bone metastasis from breast cancer cells (MRMT-1); experiment: Triple tracer autoradiography in rat models of intertrabecular and osteolytic bone metastasis from breast cancer; format: in vivo; conditions: intertrabecular model day 6 and day 8, osteolytic model day 11 after transplantation; three tracers in an identical rat
Procedure: MRMT-1 suspension was prepared in the same way as the MRMT-1 suspension prepared in Example 1.
A model of intertrabecular bone metastasis was prepared in the same way as the rat model of osteolytic bone metastasis prepared in Example 1 except that a MRMT-1 suspension was injected into right and left saphenous arteries of the 12-week old male SD rat (Japan SLC, Inc.), which was used for the following experiment at day 6 or day 8 after the transplantation. The lesion appeared only in right hind limb of the model at day 6 after the transplantation and left limb of the model at day 8 after the transplantation.
A model of osteolytic bone metastasis was prepared in the same way as the rat model of osteolytic bone metastasis prepared in Example 1 except that the model was produced from 12-week old male SD rat (Japan SLC, Inc.), and used for the following experiment at day 11 after the transplantation. […]

[3] = system: bone metastasis from prostate cancer; experiment: PET/CT imaging of patient with prostate cancer, compared with bone scintigraphy and whole body contrast enhanced CT; conditions: untreated patient with prostate cancer; 263.1 MBq intravenously; whole body PET finished by 30 minutes
[4] = system: bone metastasis from breast cancer; conditions: human, in vivo; cited from earlier work

Compound	accumulation in bone metastasis in the osteolytic lesion area (autoradiogram, arrow A) [1]	accumulation in bone metastasis prior to the formation of osteolytic lesion, not detectable in X-ray image (autoradiogram, arrow B) [1]	accumulation in the early focal site of bone metastasis (autoradiogram) [2]	visualization of lesions which were not visualized on bone scintigraphy and whole body contrast enhanced CT [3]	combined sensitivity of all sites [4]	detection rate of osteoblastic bone metastasis [4]	detection rate of osteolytic bone metastasis [4]
N[14C]1(C(=O)O)CC(F)C1 (stereo not drawn) [^14C-fluciclovine, trans-1-amino-3-fluorocyclobutane-1-[^14C]carboxylic acid]	accumulated	also accumulated	accumulated				
N[C@]1(C(=O)O)C[C@@H](F)C1 [^18F-fluciclovine, trans-1-amino-[^18F]fluorocyclobutanecarboxylic acid]				visualized			
technetium[^99mTc]hydroxymethylene diphosphonate [^99mTc-HMDP]	observed in neither	observed in neither	no accumulation		78.2%	100%	70.0%
